Data from ChEMBL document CHEMBL4840344, “Discovery of 1,8-naphthalidine derivatives as potent anti-hepatic fibrosis agents via repressing PI3K/AKT/Smad and JAK2/STAT3 pathways” (Bioorg Med Chem, 2021).
Activity calls are given as the source filed them. No cut-off for these calls is given here.

Key:
COL1A1 promoter [1] = test: Inhibition of COL1A1 promotor activity in human LX2 cells at 50 uM incubated for 24 hrs by luciferase reporter gene assay; type: cell-based
[2] = Cytotoxicity against human LX2 cells assessed as cell death incubated for 24 hrs by MTT assay; type: cell-based, LX-2
COL1A1 promoter [3] = test: Inhibition of COL1A1 promotor activity in human LX2 cells at 20 uM incubated for 24 hrs by luciferase reporter gene assay; type: cell-based

Structure (SMILES) | inhibition (COL1A1 promoter [1]) | CC50 at 24 h [2] [µM] | inhibition (COL1A1 promoter [3])
CC[N+]1(CCCCCCCOc2cc(-n3cc(C(=O)Nc4cc(F)cc(F)c4)c(=O)c4ccc(N(C)C)nc43)ccc2Cl)CCCC1 | 96.4% | 61.3 | 46%
CC[N+]1(CCCCCCCOc2cc(C)cc(-n3cc(C(=O)Nc4cc(F)cc(F)c4)c(=O)c4ccc(N(C)C)nc43)c2)CCCC1 | 73.2% | – | 35.1%
Cc1cc(-n2cc(C(=O)Nc3cc(F)cc(F)c3)c(=O)c3ccc(N(C)C)nc32)ccc1OCCCCCCC[N+]12CCN(CC1)CC2 | 20.8% | – | 10.6%
Cc1cc(-n2cc(C(=O)Nc3cc(F)cc(F)c3)c(=O)c3ccc(N(C)C)nc32)ccc1OCCCCCCC[N+]1(C)CCCCC1 | 54.4% | – | 33%
CN(C)c1ccc2c(=O)c(C(=O)Nc3cc(F)cc(F)c3)cn(-c3ccc(OCCCCCCC[N+]45CCN(CC4)CC5)cc3F)c2n1 | 42.4% | – | 9.02%
CN1CC[N+](C)(CCCCCCCOc2ccc(-n3cc(C(=O)Nc4cc(F)cc(F)c4)c(=O)c4ccc(N(C)C)nc43)cc2Cl)CC1 | 15.4% | – | –
O=C(O[C@@H]1Cc2c(O)cc(O)cc2O[C@@H]1c1cc(O)c(O)c(O)c1)c1cc(O)c(O)c(O)c1 [EPIGALOCATECHIN GALLATE] | 32.2% | > 100 | 19.2%
Cc1cc(OCCCCCCC[n+]2ccccc2)cc(-n2cc(C(=O)Nc3cc(F)cc(F)c3)c(=O)c3ccc(N(C)C)nc32)c1 | 61% | – | 7.7%
CN(C)c1ccc2c(=O)c(C(=O)Nc3cc(F)cc(F)c3)cn(-c3ccc(OCCCCCCC[N+]4(C)CCCCC4)cc3F)c2n1 | inactive | < 20 | inactive
Cc1ccc(-n2cc(C(=O)Nc3cc(F)cc(F)c3)c(=O)c3ccc(N(C)C)nc32)cc1OCCCCCCC[N+](C)(C)C1CCCCC1 | 61.7% | – | 32.3%
CN(C)c1ccc2c(=O)c(C(=O)Nc3cc(F)cc(F)c3)cn(-c3ccc(OCCCCCCC[N+]4(C)CCCCC4)cc3Cl)c2n1 | inactive | < 20 | inactive
Cc1ccc(-n2cc(C(=O)Nc3cc(F)cc(F)c3)c(=O)c3ccc(N(C)C)nc32)cc1OCCCCCCC[N+]1(C)CCN(C)CC1 | 25% | – | 10.3%
CC[N+]1(CCCCCCCOc2cc(-n3cc(C(=O)Nc4cc(F)cc(F)c4)c(=O)c4ccc(N(C)C)nc43)ccc2Cl)CCCCC1 | inactive | – | inactive
CC[N+]1(CCCCCCCOc2ccc(-n3cc(C(=O)Nc4cc(F)cc(F)c4)c(=O)c4ccc(N(C)C)nc43)c(F)c2)CCCC1 | inactive | < 20 | inactive
CC[N+]1(CCCCCCCOc2ccc(-n3cc(C(=O)Nc4cc(F)cc(F)c4)c(=O)c4ccc(N(C)C)nc43)cc2Cl)CCCCC1 | 50.4% | – | 14.3%
CN1CC[N+](C)(CCCCCCCOc2cc(-n3cc(C(=O)Nc4cc(F)cc(F)c4)c(=O)c4ccc(N(C)C)nc43)ccc2Cl)CC1 | 45.2% | – | 27.5%
CC[N+]1(CCCCCCCOc2ccc(-n3cc(C(=O)Nc4cc(F)cc(F)c4)c(=O)c4ccc(N(C)C)nc43)cc2Cl)CCCC1 | 23.5% | – | –
Cc1ccc(-n2cc(C(=O)Nc3cc(F)cc(F)c3)c(=O)c3ccc(N(C)C)nc32)cc1OCCCCCCC[n+]1ccccc1 | 22.2% | – | 39.7%
Cc1cc(OCCCCCCC[N+]23CCN(CC2)CC3)cc(-n2cc(C(=O)Nc3cc(F)cc(F)c3)c(=O)c3ccc(N(C)C)nc32)c1 | 5.52% | – | 10.3%
CC[N+]1(CCCCCCCOc2ccc(-n3cc(C(=O)Nc4cc(F)cc(F)c4)c(=O)c4ccc(N(C)C)nc43)c(Cl)c2)CCCCC1 | inactive | < 20 | inactive
CN(C)c1ccc2c(=O)c(C(=O)Nc3cc(F)cc(F)c3)cn(-c3ccc(OCCCCCCC[n+]4ccccc4)cc3F)c2n1 | inactive | < 20 | 15.4%
Cc1ccc(-n2cc(C(=O)Nc3cc(F)cc(F)c3)c(=O)c3ccc(N(C)C)nc32)cc1OCCCCCCC[N+]1(C)CCCCC1 | 45.1% | – | 23.4%
Cc1cc(OCCCCCCC[N+]2(C)CCN(C)CC2)cc(-n2cc(C(=O)Nc3cc(F)cc(F)c3)c(=O)c3ccc(N(C)C)nc32)c1 | 38.2% | – | 2.8%
CC[N+]1(CCCCCCCOc2ccc(-n3cc(C(=O)Nc4cc(F)cc(F)c4)c(=O)c4ccc(N(C)C)nc43)c(Cl)c2)CCCC1 | inactive | < 20 | inactive
CN(C)c1ccc2c(=O)c(C(=O)Nc3cc(F)cc(F)c3)cn(-c3ccc(OCCCCCCC[N+]45CCN(CC4)CC5)cc3Cl)c2n1 | 80% | 76.9 | 40.1%
CN(C)c1ccc2c(=O)c(C(=O)Nc3cc(F)cc(F)c3)cn(-c3ccc(OCCCCCCC[n+]4ccccc4)c(Cl)c3)c2n1 | 21.4% | – | –
CN(C)c1ccc2c(=O)c(C(=O)Nc3cc(F)cc(F)c3)cn(-c3ccc(OCCCCCCC[n+]4ccccc4)cc3Cl)c2n1 | inactive | – | inactive

Structure (SMILES) | inhibition (COL1A1 promoter [1]) | CC50 at 24 h [2] [µM] | inhibition (COL1A1 promoter [3])
Cc1cc(OCCCCCCC[N+]2(C)CCCCC2)ccc1-n1cc(C(=O)Nc2cc(F)cc(F)c2)c(=O)c2ccc(N(C)C)nc21 | inactive | < 20 | inactive
CN(C)c1ccc2c(=O)c(C(=O)Nc3cc(F)cc(F)c3)cn(-c3ccc(OCCCCCCC[N+]4(C)CCCC4)c(Cl)c3)c2n1 | 2.59% | – | –
Cc1cc(OCCCCCCC[N+](C)(C)C2CCCCC2)ccc1-n1cc(C(=O)Nc2cc(F)cc(F)c2)c(=O)c2ccc(N(C)C)nc21 | inactive | – | inactive
CN(C)c1ccc2c(=O)c(C(=O)Nc3cc(F)cc(F)c3)cn(-c3ccc(OCCCCCCC[N+]4(C)CCCC4)cc3F)c2n1 | inactive | < 20 | inactive
CC[N+]1(CCCCCCCOc2ccc(-n3cc(C(=O)Nc4cc(F)cc(F)c4)c(=O)c4ccc(N(C)C)nc43)c(C)c2)CCCCC1 | inactive | < 20 | inactive
Cc1cc(-n2cc(C(=O)Nc3cc(F)cc(F)c3)c(=O)c3ccc(N(C)C)nc32)ccc1OCCCCCCC[N+]1(C)CCCC1 | 35.9% | – | 26.1%
Cc1cc(OCCCCCCC[n+]2ccccc2)ccc1-n1cc(C(=O)Nc2cc(F)cc(F)c2)c(=O)c2ccc(N(C)C)nc21 | inactive | – | inactive
Cc1cc(OCCCCCCC[N+]23CCN(CC2)CC3)ccc1-n1cc(C(=O)Nc2cc(F)cc(F)c2)c(=O)c2ccc(N(C)C)nc21 | inactive | < 20 | inactive
Cc1cc(OCCCCCCC[N+]2(C)CCCC2)ccc1-n1cc(C(=O)Nc2cc(F)cc(F)c2)c(=O)c2ccc(N(C)C)nc21 | inactive | < 20 | inactive
CN(C)c1ccc2c(=O)c(C(=O)Nc3cc(F)cc(F)c3)cn(-c3ccc(OCCCCCCC[N+](C)(C)C4CCCCC4)cc3Cl)c2n1 | inactive | – | inactive
CN(C)c1ccc2c(=O)c(C(=O)Nc3cc(F)cc(F)c3)cn(-c3ccc(Cl)c(OCCCCCCC[N+]4(C)CCCC4)c3)c2n1 | 76.1% | 54.5 | 51%
CC[N+]1(CCCCCCCOc2ccc(-n3cc(C(=O)Nc4cc(F)cc(F)c4)c(=O)c4ccc(N(C)C)nc43)c(F)c2)CCCCC1 | inactive | < 20 | inactive
Cc1cc(-n2cc(C(=O)Nc3cc(F)cc(F)c3)c(=O)c3ccc(N(C)C)nc32)ccc1OCCCCCCC[n+]1ccccc1 | 55% | – | inactive
CN(C)c1ccc2c(=O)c(C(=O)Nc3cc(F)cc(F)c3)cn(-c3ccc(OCCCCCCC[N+]4(C)CCCCC4)c(Cl)c3)c2n1 | inactive | – | –
Cc1cc(OCCCCCCC[N+]2(C)CCN(C)CC2)ccc1-n1cc(C(=O)Nc2cc(F)cc(F)c2)c(=O)c2ccc(N(C)C)nc21 | inactive | < 20 | inactive
Cc1cc(OCCCCCCC[N+](C)(C)C2CCCCC2)cc(-n2cc(C(=O)Nc3cc(F)cc(F)c3)c(=O)c3ccc(N(C)C)nc32)c1 | 89.1% | 61.8 | 52.5%
Cc1cc(-n2cc(C(=O)Nc3cc(F)cc(F)c3)c(=O)c3ccc(N(C)C)nc32)ccc1OCCCCCCC[N+]1(C)CCN(C)CC1 | 32% | – | 16.2%
Cc1ccc(-n2cc(C(=O)Nc3cc(F)cc(F)c3)c(=O)c3ccc(N(C)C)nc32)cc1OCCCCCCC[N+]1(C)CCCC1 | 55.9% | – | 12.7%
CN1CC[N+](C)(CCCCCCCOc2ccc(-n3cc(C(=O)Nc4cc(F)cc(F)c4)c(=O)c4ccc(N(C)C)nc43)c(F)c2)CC1 | – | – | inactive
CC[N+]1(CCCCCCCOc2ccc(-n3cc(C(=O)Nc4cc(F)cc(F)c4)c(=O)c4ccc(N(C)C)nc43)cc2C)CCCCC1 | 53.4% | – | 19.7%
Cc1cc(OCCCCCCC[N+]2(C)CCCC2)cc(-n2cc(C(=O)Nc3cc(F)cc(F)c3)c(=O)c3ccc(N(C)C)nc32)c1 | 35.4% | – | 4.32%
CN(C)c1ccc2c(=O)c(C(=O)Nc3cc(F)cc(F)c3)cn(-c3ccc(OCCCCCCC[N+]4(C)CCCC4)cc3Cl)c2n1 | inactive | < 20 | inactive
CN(C)c1ccc2c(=O)c(C(=O)Nc3cc(F)cc(F)c3)cn(-c3ccc(OCCCCCCC[N+]45CCN(CC4)CC5)c(Cl)c3)c2n1 | 20.4% | – | –
CN(C)c1ccc2c(=O)c(C(=O)Nc3cc(F)cc(F)c3)cn(-c3ccc(Cl)c(OCCCCCCC[N+]45CCN(CC4)CC5)c3)c2n1 | 18.7% | – | 8.08%
CN(C)c1ccc2c(=O)c(C(=O)Nc3cc(F)cc(F)c3)cn(-c3ccc(OCCCCCCC[N+](C)(C)C4CCCCC4)cc3F)c2n1 | inactive | – | inactive
Cc1ccc(-n2cc(C(=O)Nc3cc(F)cc(F)c3)c(=O)c3ccc(N(C)C)nc32)cc1OCCCCCCC[N+]12CCN(CC1)CC2 | 9.71% | – | 5.07%
